Experimental data reported in US20100317863A1, “Glucocorticoid Mimetics, Methods of Making Them, Pharmaceutical Compositions and Uses Thereof” (BOEHRINGER INGELHEIM INTERNATIONAL GMBH, priority 2007, published 2010).

molecular target: T1, human glucocorticoid receptor (GR) complex (Homo sapiens, UniProt P04150); experiment: Glucocorticoid Receptor Competitive Binding Assay (fluorescence polarization); conditions: competition with TAMRA-labeled dexamethasone; potent activity
T1 construct: made in house; host or cells: insect expression system (baculovirus lysate)
T1 sequence (P04150 1-777): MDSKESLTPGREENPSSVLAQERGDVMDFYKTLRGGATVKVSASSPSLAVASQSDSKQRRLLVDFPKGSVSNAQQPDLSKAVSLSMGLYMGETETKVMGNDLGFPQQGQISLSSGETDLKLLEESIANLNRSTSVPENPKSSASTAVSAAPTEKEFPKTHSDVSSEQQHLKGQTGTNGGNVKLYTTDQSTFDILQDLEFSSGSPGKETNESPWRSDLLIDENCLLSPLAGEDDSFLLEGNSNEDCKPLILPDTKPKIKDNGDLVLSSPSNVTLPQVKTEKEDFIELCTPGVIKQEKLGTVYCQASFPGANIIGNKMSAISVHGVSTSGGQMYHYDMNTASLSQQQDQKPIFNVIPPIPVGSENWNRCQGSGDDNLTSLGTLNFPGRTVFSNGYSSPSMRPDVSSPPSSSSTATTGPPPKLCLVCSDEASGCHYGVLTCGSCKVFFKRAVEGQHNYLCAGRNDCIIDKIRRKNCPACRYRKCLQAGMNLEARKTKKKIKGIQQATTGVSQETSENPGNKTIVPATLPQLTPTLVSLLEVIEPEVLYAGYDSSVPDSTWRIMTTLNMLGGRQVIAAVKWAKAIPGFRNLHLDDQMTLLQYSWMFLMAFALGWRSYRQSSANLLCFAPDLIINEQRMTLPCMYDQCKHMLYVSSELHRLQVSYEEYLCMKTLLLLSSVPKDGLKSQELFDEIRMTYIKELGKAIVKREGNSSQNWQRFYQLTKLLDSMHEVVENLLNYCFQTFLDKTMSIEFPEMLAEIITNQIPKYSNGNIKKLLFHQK
Procedure: Compounds of the invention were evaluated for binding to the steroid receptor by a fluorescence polarization competitive binding assay. Detailed descriptions for preparation of recombinant glucocorticoid receptor (GR) complex used in the assay is described in U.S. Patent Application Publication No. US 2003/0017503, filed May 20, 2002, and incorporated herein by reference in its entirety. Preparation of the tetramethylrhodamine (TAMRA)-labeled dexamethasone probe was accomplished using a standard literature procedure (M. Pons et al., J. Steroid Biochem., 1985, 22, pp. 267-273).
This assay uses fluorescence polarization (FP) to quantitate the ability of test compounds to compete with tetramethylrhodamine (TAMRA)-labeled dexamethasone for binding to a human glucocorticoid receptor (GR) complex prepared from an insect expression system. The assay buffer was: 10 mM TES, 50 mM KCl, 20 mM Na2MoO4.2H2O, 1.5 mM EDTA, 0.04% w/v CHAPS, 10% v/v glycerol, 1 mM dithiothreitol, pH 7.4. Test compounds were dissolved to 1 mM in neat DMSO and then further diluted to 10× assay concentration in assay buffer supplemented with 10% v/v DMSO. Test compounds were serially diluted at 10× assay concentrations in 10% DMSO-containing buffer in 96-well polypropylene plates. Binding reaction mixtures were prepared in 96-well black Dynex microtiter plates by sequential addition of the following assay components to each well: 15 μL of 10× test compound solution, 85 μL of GR-containing baculovirus lysate diluted 1:170 in assay buffer, and 50 μL of 15 nM TAMRA-labeled dexamethasone. Positive controls were reaction mixtures containing no test compound; negative controls (blanks) were reaction mixtures containing 0.7 μM to 2 μM dexamethasone. The binding reactions were incubated for 1 hour at room temperature and then read for fluorescence polarization in the LJL Analyst set to 550 nm excitation and 580 nm emission, with the Rhodamine 561 dichroic mirror installed. IC50 values were determined by iterative non-linear curve fitting of the FP signal data to a 4-parameter logistic equation.

| IC50 | Compound |
| --- | --- |
| ≤ 100 nM | CC[C@@H](Cn1ccc2cc(C(=O)OC)ccc21)NS(=O)(=O)c1c(C)cc(C)cc1C [1-[(S)-2-(2,4,6-Trimethylbenzenesulfonylamino)butyl]-1H-indole-5-carboxylic acid methyl ester] |
| ≤ 100 nM | CC[C@@H](Cn1cc(C(N)=O)c2cc(F)ccc21)NS(=O)(=O)c1c(Cl)cc(Br)cc1Cl [1-[(S)-2-(4-Bromo-2,6-dichlorobenzenesulfonylamino)butyl]-5-fluoro-1H-indole-3-carboxylic acid amide] |
| ≤ 100 nM | CCC(Cn1cc(C)c2ccccc21)NS(=O)(=O)c1c(Cl)cc(Cl)cc1Cl (stereo not shown) [2,4,6-Trichloro-N-[1-(3-methylindol-1-ylmethyl)propyl]benzenesulfonamide] |
| ≤ 100 nM | Cc1ccc2c(c1)CCCN2CC(NS(=O)(=O)c1c(Cl)cc(Cl)cc1Cl)C(C)C (stereo not shown) [2,4,6-Trichloro-N-[2-methyl-1-(6-methyl-3,4-dihydro-2H-quinolin-1-ylmethyl)propyl]benzenesulfonamide] |
| ≤ 100 nM | CCC(Cn1cc(C)c2ccccc21)NS(=O)(=O)c1c(C)cc(C)cc1C (stereo not shown) [2,4,6-Trimethyl-N-[1-(3-methylindol-1-ylmethyl)propyl]benzenesulfonamide] |
| ≤ 100 nM | CC[C@@H](Cc1cccc2c1ccn2C)NS(=O)(=O)c1c(C)cc(C)cc1C [2,4,6-Trimethyl-N—[(S)-1-(1-methyl-1H-indol-4-ylmethyl)propyl]benzenesulfonamide] |
| ≤ 100 nM | CC[C@@H](Cc1ccc2ccn(C)c2c1)NS(=O)(=O)c1c(C)cc(C)cc1C [2,4,6-Trimethyl-N—[(S)-1-(1-methyl-1H-indol-6-ylmethyl)propyl]benzenesulfonamide] |
| ≤ 100 nM | CC[C@@H](Cc1cccc2ccn(C)c12)NS(=O)(=O)c1c(C)cc(C)cc1C [2,4,6-Trimethyl-N—[(S)-1-(1-methyl-1H-indol-7-ylmethyl)propyl]benzenesulfonamide] |
| ≤ 100 nM | CC[C@@H](Cn1cc(C)c2ccccc21)NS(=O)(=O)c1c(C)cc(C)cc1C [2,4,6-Trimethyl-N—[(S)-1-(3-methylindol-1-ylmethyl)propyl]benzenesulfonamide] |
| ≤ 100 nM | CC[C@@H](Cn1cc(-c2ccc(C)cc2)c2ccccc21)NS(=O)(=O)c1c(C)cc(C)cc1C [2,4,6-Trimethyl-N—[(S)-1-(3-p-tolylindol-1-ylmethyl)propyl]benzenesulfonamide] |
| ≤ 100 nM | CC[C@@H](Cn1cc(-c2cccnc2)c2ccccc21)NS(=O)(=O)c1c(C)cc(C)cc1C [2,4,6-Trimethyl-N—[(S)-1-(3-pyridin-3-ylindol-1-ylmethyl)propyl]benzenesulfonamide] |
| ≤ 100 nM | Cc1cc(C)c(S(=O)(=O)NC(Cn2cc(C)c3ccccc32)C(C)C)c([N+](=O)[O-])c1 (stereo not shown) [2,4-Dimethyl-N-[2-methyl-1-(3-methylindol-1-ylmethyl)propyl]-6-nitrobenzenesulfonamide] |
| ≤ 100 nM | CC[C@@H](Cn1cc(C)c2ccccc21)NS(=O)(=O)c1c(C)cc(C)cc1[N+](=O)[O-] [2,4-Dimethyl-N—[(S)-1-(3-methylindol-1-ylmethyl)propyl]-6-nitrobenzenesulfonamide] |
| ≤ 100 nM | Cc1cc(C)c(S(=O)(=O)N[C@@H](C)Cn2cc(C)c3ccccc32)c([N+](=O)[O-])c1 [2,4-Dimethyl-N—[(S)-1-methyl-2-(3-methylindol-1-yl)-ethyl]-6-nitrobenzenesulfonamide] |
| ≤ 100 nM | CC(C)C(Cn1ccc2ccccc21)NS(=O)(=O)c1c(N)cc(Cl)cc1Cl (stereo not shown) [2-Amino-4,6-dichloro-N-(1-indol-1-ylmethyl-2-methylpropyl)benzenesulfonamide] |
| ≤ 100 nM | CCC(Cn1cc(C)c2ccccc21)NS(=O)(=O)c1c(N)cc(Cl)cc1Cl (stereo not shown) [2-Amino-4,6-dichloro-N-[1-(3-methylindol-1-ylmethyl)propyl]benzenesulfonamide] |

| IC50 | Compound |
| --- | --- |
| ≤ 100 nM | Cc1cn(CC(NS(=O)(=O)c2c(N)cc(Cl)cc2Cl)C(C)C)c2ccccc12 (stereo not shown) [2-Amino-4,6-dichloro-N-[2-methyl-1-(3-methylindol-1-ylmethyl)propyl]benzenesulfonamide] |
| ≤ 100 nM | CC[C@@H](Cn1ccc2ccccc21)NS(=O)(=O)c1c(N)cc(Cl)cc1Cl [2-Amino-4,6-dichloro-N—((S)-1-indol-1-ylmethylpropyl)benzenesulfonamide] |
| ≤ 100 nM | CC(C)[C@@H](Cn1cc(C#N)c2ccccc21)NS(=O)(=O)c1c(N)cc(Cl)cc1Cl [2-Amino-4,6-dichloro-N—[(S)-1-(3-cyanoindol-1-ylmethyl)-2-methylpropyl]benzenesulfonamide] |
| ≤ 100 nM | CC[C@@H](Cn1cc(C#N)c2ccccc21)NS(=O)(=O)c1c(N)cc(Cl)cc1Cl [2-Amino-4,6-dichloro-N—[(S)-1-(3-cyanoindol-1-ylmethyl)propyl]benzenesulfonamide] |
| ≤ 100 nM | CC[C@@H](Cn1cc(C)c2ccccc21)NS(=O)(=O)c1c(N)cc(Cl)cc1Cl [2-Amino-4,6-dichloro-N—[(S)-1-(3-methylindol-1-ylmethyl)propyl]benzenesulfonamide] |
| ≤ 100 nM | CC[C@@H](Cn1cc(-c2ccccc2)c2ccccc21)NS(=O)(=O)c1c(N)cc(Cl)cc1Cl [2-Amino-4,6-dichloro-N—[(S)-1-(3-phenylindol-1-ylmethyl)propyl]benzenesulfonamide] |
| ≤ 100 nM | Cc1cn(C[C@@H](NS(=O)(=O)c2c(N)cc(Cl)cc2Cl)C(C)C)c2ccccc12 [2-Amino-4,6-dichloro-N—[(S)-2-methyl-1-(3-methylindol-1-ylmethyl)propyl]benzenesulfonamide] |
| ≤ 100 nM | CC[C@@H](Cn1cc(C)c2ccccc21)NS(=O)(=O)c1c(C)cc(C)cc1N [2-Amino-4,6-dimethyl-N—[(S)-1-(3-methylindol-1-ylmethyl)propyl]benzenesulfonamide] |
| ≤ 100 nM | Cc1cc(C)c(S(=O)(=O)N[C@H](Cn2cc(C)c3ccccc32)C(C)C)c(N)c1 [2-Amino-4,6-dimethyl-N—[(S)-2-methyl-1-(3-methylindol-1-ylmethyl)propyl]benzenesulfonamide] |
| ≤ 100 nM | CC[C@@H](Cn1cc(C#N)c2cc(F)ccc21)NS(=O)(=O)c1c(C)cc(C)cc1N [2-Amino-N—[(S)-1-(3-cyano-5-fluoroindol-1-ylmethyl)propyl]-4,6-dimethylbenzenesulfonamide] |
| ≤ 100 nM | CC[C@@H](Cn1cc(C#N)c2cccc(F)c21)N(C)S(=O)(=O)c1c(C)cc(C)cc1N [2-Amino-N—[(S)-1-(3-cyano-7-fluoroindol-1-ylmethyl)propyl]-4,6,N-trimethylbenzenesulfonamide] |
| ≤ 100 nM | Cc1cc(C)c(S(=O)(=O)N[C@H](Cn2cc(C#N)c3ccccc32)C(C)C)c(N)c1 [2-Amino-N—[(S)-1-(3-cyanoindol-1-ylmethyl)-2-methylpropyl]-4,6-dimethylbenzenesulfonamide] |
| ≤ 100 nM | CC[C@@H](Cn1cc(CC#N)c2ccccc21)NS(=O)(=O)c1c(C)cc(C)cc1N [2-Amino-N—[(S)-1-(3-cyanomethylindol-1-ylmethyl)propyl]-4,6-dimethylbenzenesulfonamide] |
| ≤ 100 nM | CC[C@@H](Cn1cc(C)c2cccc(F)c21)NS(=O)(=O)c1c(C)cc(C)cc1N [2-Amino-N—[(S)-1-(7-fluoro-3-methylindol-1-ylmethyl)propyl]-4,6-dimethylbenzenesulfonamide] |
| ≤ 100 nM | Cc1cc(C)c(S(=O)(=O)N[C@@H](C)Cn2cc(C#N)c3cc(F)ccc32)c(N)c1 [2-Amino-N—[(S)-2-(3-cyano-5-fluoroindol-1-yl)-1-methylethyl]-4,6-dimethylbenzenesulfonamide] |
